Data on ten compounds can be found in patent US11401278B2, “Macrocyclic indole derivatives” (The Broad Institute, Inc., priority 2017, dated 2022).

Where “and” joins values, the source holds several entries; their conditions need not be identical. Equal entries are not always repeated. Structures can show the parent of a compound that is named as a salt. Where two headings read alike, the source gives them in different places. Bounds are passed on as bounds.

Data set [1] concerns SUDHL5. As to the kind of experiment: Antiproliferation assay (Assay 7), SUDHL5. In kind it is cell-based. Conditions: CellTiter-Glo, 72 hours, median, read-out: Antiproli SUDHL5 [M] (median) IC50. In short, it runs like this:
(§1)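 CellTiter-Glo luminescence readout; 72 h compound exposure, 37° C, humidified. Day 0 reference plate read at plating for time-zero baseline.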

The subject of data set [2] is SUDHL10. The experiment in a line: Induction of caspase-3/7 activity (Assay 4), SUDHL10. It is filed as cell-based. Particulars: caspase-3/7 induction, 3 hours, median. In short, it runs like this: (§2)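 DLBCL cells were exposed to compounds for 3 hours at 37 °C, then caspase-3/7 activation was read with Caspase-Glo 3/7 reagent. After subtracting medium-only background, EC50s were derived with fixed C0=1 and the reference compound's maximal induction as plateau.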

The subject of another data set is AMO-1. As to the kind of experiment: Antiproliferation assay (Assay 7), AMO-1. Conditions: CellTiter-Glo, 72 hours, several values per example, read-out: Antiproli AMO-1 [M] IC50. In kind it is cell-based. In a few lines:
as §1
A general note: ATP-based viability assays read luminescence as a measure of living cells.

The target in another data set is BCL-2 (Homo sapiens (Human), UniProt P10415). As to the kind of experiment: Protein-protein interaction assay BCL-2/Bad BH3 peptide (BCL-2 assay, TR-FRET). It is filed as binding. Particulars: His-BCL-2 / Bad BH3 peptide, median. In a few lines:
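His-BCL-2 (1-211, E. coli) at 1 nM preincubated 10 min at 22 °C with compound (11 concentrations, 0.1 nM-20 μM, duplicates), then 1 nM biotinylated Bad BH3 peptide added. After 1 h at 22 °C plus overnight at 4 °C, TR-FRET 665/620 ratio normalised to DMSO and no-BCL-2 controls, IC50 from 4-parameter fit.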
A general note: TR-FRET usually uses a lanthanide donor and a delayed reading to cut background.

Data set [3] has as its system SUDHL10. As to the kind of experiment: Induction of cytotoxicity (Assay 6), SUDHL10. Conditions: read-out: Cytotox SUDHL10 [M] (median) IC50, CellTiter-Glo, 5 hours, SUDHL10.
Protocol: Assay 6 Induction of Cytotoxicity Upon Treatment of Cells with Selected Compounds
Therefore, cytotoxicity assays were run in parallel in SUDHL5 and SUDHL10 cells.
The different cell lines were plated in culture medium (RPMI 1640 [GIBCO #22400-089] supplemented with 10% Fetal Bovine Serum) at a density of 3,300 cells in 30 μl/well in a sterile, solid black, flat bottom, polystyrene, TC-treated 384-well microplate (Corning #3571) using Multidrop Combi Reagent Dispenser. As a control, medium without cells was also added to the plate. Cells were incubated in a humidified incubator at 37° C. overnight. On the next day, the cells were treated with compounds (stock solution, 10 mM in DMSO) using the HP D300 Digital Dispenser in a concentration range of 3.3×10e-5 M (33 μM) to 5×10e-9 M (5 nM) in a single-dot curve with at least 16 dilutions and a DMSO concentration of 0.33%. Rim wells were excluded. The cells were incubated for 5 hours in a humidified incubator at 37° C. After this incubation, 30 μl of CellTiter-Glo® Luminescent Cell Viability reagent (Promega, G7573) was added to each well using the Multidrop Combi Reagent Dispenser, followed by 15 minutes incubation on a shaker at room temperature. Finally, luminescence was read at 0.1 ms, with a gain of 3000 using the PHERAstar FS microplate reader (BMG Labtech).
Another data set deals with HMC-1-8. The experiment in a line: Antiproliferation assay (Assay 7), HMC-1-8. It is filed as cell-based. Particulars: CellTiter-Glo, several values per example, read-out: Antiproli HMC-1-8 [M] IC50. In a few lines:
as §1

Data set [4] concerns SUDHL5. The experiment in a line: Induction of caspase-3/7 activity (Assay 4), SUDHL5. In kind it is cell-based. Particulars: caspase-3/7 induction, 3 hours, median. In short, it runs like this:
as §2

Chain of BCL-2 (P10415 other isoform, or with tags, fused parts or gaps): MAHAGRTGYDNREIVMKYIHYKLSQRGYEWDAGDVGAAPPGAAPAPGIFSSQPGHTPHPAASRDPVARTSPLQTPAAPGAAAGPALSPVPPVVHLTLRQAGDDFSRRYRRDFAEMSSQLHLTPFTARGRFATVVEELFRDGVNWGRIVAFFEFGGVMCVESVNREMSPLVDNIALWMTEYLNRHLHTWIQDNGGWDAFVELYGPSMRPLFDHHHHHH

By IC50 is commonly meant the concentration needed to halve the response being measured. By EC50 is commonly meant the concentration at which the effect is half-maximal. In the case of `CCc1c2c(nn1C)CN(C)S(=O)(=O)CCCn1c(C(=O)O)c(CCCOc3cccc4cc(F)ccc34)c3ccc(Cl)c-2c31` (single isomer, unassigned; enantiomer 2) [Example 37, (−)-4-chloro-3-ethyl-7-{3-[(6-fluoronaphthalen-1-yl)oxy]propyl}-2,14-dimethyl-13,13-dioxo-10,11,12,13,14,15-hexahydro-2H-13lambda^6-pyrazolo[3′,4′:4,5][1,2,8]thiadiazacycloundecino-[6,7,8-hi]indole-8-carboxylic acid (Enantiomer 2)], the IC50 in the data set on SUDHL5 [1] was found to be 2.2e-06 M; with AMO-1, 2.8e-05 M; against BCL-2 it was 20 µM; in the data set on SUDHL10 [3], 9e-06 M; in the data set on HMC-1-8 (72 hours) it was 1.9e-05 M. Also, the EC50 stood at 12 µM in the data set on SUDHL10 [2] and 5 µM in the data set on SUDHL5 [4].
In the case of `Cc1c2c(nn1C)CN(C1CC1)S(=O)(=O)CCCn1c(C(=O)O)c(CCCOc3cccc4ccccc34)c3ccc(Cl)c-2c31` [Example 40, (rac)-4-chloro-14-cyclopropyl-2,3-dimethyl-7-[3-(1-naphthyloxy)propyl]-11,12,14,15-tetrahydro-2H,10H-pyrazolo[3′,4′:4,5][1,2,8]thiadiazacycloundecino[6,7,8-hi]indole-8-carboxylic acid 13,13-dioxide], the IC50 with SUDHL5 [1] is 2.6e-06 M; in the data set with AMO-1, 4.9e-06 M; against BCL-2 it was above 20 µM; in the data set with SUDHL10 [3], 3.9e-06 M; with HMC-1-8 (72 hours), 7.2e-06 M. The figures for the EC50 at SUDHL10 [2] and at SUDHL5 [4] were 3.3 µM and 1.9 µM, respectively.
Consider `Cc1c2c(nn1C)C(CCN1CCOCC1)N(C)S(=O)(=O)CCCn1c(C(=O)O)c(CCCOc3cccc4ccccc34)c3cccc-2c31` (single isomer, unassigned; enantiomer 1) [Example 45, 2,3,14-trimethyl-15-[2-(morpholin-4-yl)ethyl]-7-{3-[(naphthalen-1-yl)oxy]propyl}-13,13-dioxo-10,11,12,13,14,15-hexahydro-2H-13lambda^6-pyrazolo[3′,4′:4,5][1,2,8]thiadiazacycloundecino[6,7,8-hi]indole-8-carboxylic acid N-ethylethanamine Salt (Enantiomer 1)], for which the IC50 in the data set with SUDHL5 [1] is 1.7e-05 M; with AMO-1, 1.5e-05 M; against BCL-2, above 20 µM; with SUDHL10 [3] it was 1.7e-05 M; with HMC-1-8 (72 hours), above 3.3e-05 M. The values for the EC50 with SUDHL10 [2] and with SUDHL5 [4] were 23 µM and 27 µM, respectively.
With `CCc1c2c(nn1C)C(CCC1CCOCC1)N(C)S(=O)(=O)CCCn1c(C(=O)O)c(CCCOc3cccc4cc(F)ccc34)c3ccc(Cl)c-2c31` (single isomer, unassigned; enantiomer 4) [Example 64, (−)-4-chloro-3-ethyl-7-{3-[(6-fluoronaphthalen-1-yl)oxy]propyl}-2,14-dimethyl-15-[2-(oxan-4-yl)ethyl]-13,13-dioxo-10,11,12,13,14,15-hexahydro-2H-13lambda^6-pyrazolo[3′,4′:4,5][1,2,8]thiadiazacycloundecino[6,7,8-hi]indole-8-carboxylic acid (Enantiomer 4)], the IC50 with SUDHL5 [1] is 1.4e-06 M; in the data set with AMO-1 it was 1e-06 M; against BCL-2, above 20 µM; with SUDHL10 [3], 2.9e-06 M; in the data set with HMC-1-8 (72 hours), 1.1e-05 M. Also, the EC50 is 1.6 µM in the data set on SUDHL10 [2] and 1.2 µM with SUDHL5 [4].
On to `Cc1c2c(nn1C)CN(C1CC1)S(=O)(=O)CCCn1c(C(=O)O)c(CCCOc3cccc4cc(F)ccc34)c3ccc(Cl)c-2c31` (racemic) [Example 41, (rac)-4-chloro-14-cyclopropyl-7-{3-[(6-fluoro-1-naphthyl)oxy]propyl}-2,3-dimethyl-11,12,14,15-tetrahydro-2H,10H-pyrazolo[3′,4′:4,5][1,2,8]thiadiazacycloundecino[6,7,8-hi]indole-8-carboxylic acid 13,13-dioxide], for which the IC50 in the data set on SUDHL5 [1] is 1.2e-06 M; in the data set on AMO-1 it was 8e-07 M; at BCL-2, 19 µM; with SUDHL10 [3], 1.7e-06 M; in the data set on HMC-1-8 (72 hours), 3.9e-06 M. The EC50 on SUDHL10 [2] came to 1.6 µM; at SUDHL5 [4] it was 0.82 µM.
Consider `CCc1c2c(nn1C)C(CCC1CCOCC1)N(C)S(=O)(=O)CCCn1c(C(=O)O)c(CCCOc3cccc4cc(F)ccc34)c3ccc(Cl)c-2c31` (single isomer, unassigned; enantiomer 2) [Example 62, (−)-4-chloro-3-ethyl-7-{3-[(6-fluoronaphthalen-1-yl)oxy]propyl}-2,14-dimethyl-15-[2-(oxan-4-yl)ethyl]-13,13-dioxo-10,11,12,13,14,15-hexahydro-2H-13lambda^6-pyrazolo[3′,4′:4,5][1,2,8]thiadiazacycloundecino[6,7,8-hi]indole-8-carboxylic acid (Enantiomer 2)], for which the IC50 with SUDHL5 [1] is 3.7e-06 M; with AMO-1, 3.8e-06 M; against BCL-2, 14 µM; in the data set with SUDHL10 [3], 9.7e-06 M; with HMC-1-8 (72 hours) it was 2.1e-05 M. For the same compound, the concentration giving a half-maximal response (EC50) was found to be 6.8 µM in the data set on SUDHL10 [2] and 4.1 µM with SUDHL5 [4].
As to `CCc1c2c(nn1C)C(CCC1CCOCC1)N(C)S(=O)(=O)CCCn1c(C(=O)O)c(CCCOc3cccc4cc(F)ccc34)c3ccc(Cl)c-2c31` (racemic) [Example 59, (rac)-4-chloro-3-ethyl-7-{3-[(6-fluoro-1-naphthyl)oxy]propyl}-2,14-dimethyl-15-[2-(tetrahydro-2H-pyran-4-yl)ethyl]-11,12,14,15-tetrahydro-2H,10H-pyrazolo[3′,4′:4,5][1,2,8]thiadiazacycloundecino[6,7,8-hi]indole-8-carboxylic acid 13,13-dioxide (Racemate 2)], the IC50 in the data set on SUDHL5 [1] came to 5.6e-08 M; in the data set with AMO-1, 2.1e-07 M; against BCL-2, 17 µM; with SUDHL10 [3] it was 1e-07 M; with HMC-1-8 (72 hours), 6e-07 M. The EC50 in the data set on SUDHL10 [2] was found to be 0.078 µM; in the data set with SUDHL5 [4], 0.037 µM.
For the compound `Cc1c2c(nn1C)CNS(=O)(=O)CCCn1c(C(=O)O)c(CCCOc3cccc4cc(F)ccc34)c3ccc(Cl)c-2c31` (single isomer, unassigned; enantiomer 2) [Example 52, 4-chloro-7-{3-[(6-fluoronaphthalen-1-yl)oxy]propyl}-2,3-dimethyl-13,13-dioxo-10,11,12,13,14,15-hexahydro-2H-13lambda^6-pyrazolo[3′,4′:4,5][1,2,8]thiadiazacycloundecino[6,7,8-hi]indole-8-carboxylic acid (Enantiomer 2)], the IC50 in the data set on SUDHL5 [1] was 2e-05 M; with AMO-1, 1.1e-05 M; against BCL-2 it was above 20 µM; in the data set with SUDHL10 [3], 1.7e-05 M; with HMC-1-8 (72 hours), above 3.3e-05 M. Further, the EC50 in the data set on SUDHL10 [2] is above 33 µM; in the data set on SUDHL5 [4] it was 27 µM.
In the case of `Cc1c2c(nn1C)C(CCN1CCOCC1)N(C)S(=O)(=O)CCCn1c(C(=O)O)c(CCCOc3cccc4cc(F)ccc34)c3ccc(Cl)c-2c31` (racemic) [Example 65, (rac)-4-chloro-7-{3-[(6-fluoronaphthalen-1-yl)oxy]propyl}-2,3,14-trimethyl-15-(rac)-[2-(morpholin-4-yl)ethyl]-13,13-dioxo-10,11,12,13,14,15-hexahydro-2H-13lambda^6-pyrazolo[3′,4′:4,5][1,2,8]thiadiazacycloundecino[6,7,8-hi]indole-8-carboxylic acid (Mixture of Stereoisomers)], the IC50 in the data set with SUDHL5 [1] is 6e-08 M; with AMO-1, 7.1e-08 M; against BCL-2, above 20 µM; with SUDHL10 [3], 1e-07 M; in the data set on HMC-1-8 (72 h), 1.5e-06 M. Further, the concentration for a half-maximal effect (EC50) worked out at 0.06 µM with SUDHL10 [2] and 0.047 µM with SUDHL5 [4].
As to `CCc1c2c(nn1C)CN(CC)S(=O)(=O)CCCn1c(C(=O)O)c(CCCOc3cccc4cc(F)ccc34)c3ccc(Cl)c-2c31` (single isomer, unassigned; enantiomer 1) [Example 57, (+)-4-chloro-3,14-diethyl-7-{3-[(6-fluoronaphthalen-1-yl)oxy]propyl}-2-methyl-13,13-dioxo-10,11,12,13,14,15-hexahydro-2H-13lambda^6-pyrazolo[3′,4′:4,5][1,2,8]thiadiazacycloundecino[6,7,8-hi]indole-8-carboxylic acid N-ethylethanamine Salt (Enantiomer 1)], the half-maximal inhibitory concentration (IC50) was 5.8e-08 M in the data set on SUDHL5 [1]; 1.6e-07 M and 1.3e-07 M in the data set on AMO-1; 12 µM on BCL-2; 1.4e-07 M in the data set on SUDHL10 [3]; 9.1e-07 M and 1.3e-06 M with HMC-1-8 (72 hours). The EC50 with SUDHL10 [2] was 0.11 µM; in the data set on SUDHL5 [4], 0.12 µM.
